Results from the supplement of paper PMC12463676, “Small-molecule dissolution of stress granules by redox modulation benefits ALS models” (Nature Chemical Biology, 2025).

Legend:
[1] = compound: O=[As]([O-])(O)O.[K+] [potassium arsenate]; assay: thermal stability z-score vs DMSO; higher = more thermally stabilized by treatment; conditions: HeLa; arsenate concentration 1 mM
Experimental: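 Cellular thermal proteome profiling in HeLa cells treated with 1 mM arsenate for 1 h (DMSO pretreatment), heated to ten temperatures (37-66.3 °C). Soluble protein was quantified by TMT mass spectrometry relative to DMSO controls; the thermal stability score was transformed to a z-score; mean of n = 3 experiments.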

[2] = compound: NC(=O)CCCCC1CCSS1 [lipoamide]; assay: as above; conditions: HeLa, lipoamide concentration 100 µM
Experimental: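 Cellular thermal proteome profiling in HeLa cells. Cells were treated with 100 µM lipoamide for 1 h, with or without 1 mM arsenate for a further 1 h, then heated to ten temperatures (37-66.3 °C), and soluble protein was quantified by TMT mass spectrometry relative to 0.1% DMSO controls. The thermal stability score (sum of log2 fold changes minus the abundance score) was transformed to a z-score; mean of n = 3 experiments.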

[3] = arsenate co-treatment: 1 mM arsenate 1 h
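Also: each temperature applied for 3 min, abundance score taken as mean log2 fold change at the two lowest temperatures, z-score obtained by mean subtraction and division by SD.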

Sequence of UniProt Q6UW63 (Q6UW63 whole entry): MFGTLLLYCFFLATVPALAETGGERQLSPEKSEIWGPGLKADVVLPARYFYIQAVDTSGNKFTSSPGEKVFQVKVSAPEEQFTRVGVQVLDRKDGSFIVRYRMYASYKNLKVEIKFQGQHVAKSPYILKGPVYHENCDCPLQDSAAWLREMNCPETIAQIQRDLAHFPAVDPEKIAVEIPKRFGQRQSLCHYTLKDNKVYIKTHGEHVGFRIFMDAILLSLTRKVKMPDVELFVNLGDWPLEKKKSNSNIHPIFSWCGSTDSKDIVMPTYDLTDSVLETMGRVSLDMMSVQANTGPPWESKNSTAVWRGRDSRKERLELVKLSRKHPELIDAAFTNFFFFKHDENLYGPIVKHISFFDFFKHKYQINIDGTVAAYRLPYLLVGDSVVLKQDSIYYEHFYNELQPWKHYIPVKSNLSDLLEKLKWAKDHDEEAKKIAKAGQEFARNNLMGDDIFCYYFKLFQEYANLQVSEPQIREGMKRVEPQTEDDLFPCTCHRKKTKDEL
Sequence of UniProt Q5VSG8 (Q5VSG8 whole entry): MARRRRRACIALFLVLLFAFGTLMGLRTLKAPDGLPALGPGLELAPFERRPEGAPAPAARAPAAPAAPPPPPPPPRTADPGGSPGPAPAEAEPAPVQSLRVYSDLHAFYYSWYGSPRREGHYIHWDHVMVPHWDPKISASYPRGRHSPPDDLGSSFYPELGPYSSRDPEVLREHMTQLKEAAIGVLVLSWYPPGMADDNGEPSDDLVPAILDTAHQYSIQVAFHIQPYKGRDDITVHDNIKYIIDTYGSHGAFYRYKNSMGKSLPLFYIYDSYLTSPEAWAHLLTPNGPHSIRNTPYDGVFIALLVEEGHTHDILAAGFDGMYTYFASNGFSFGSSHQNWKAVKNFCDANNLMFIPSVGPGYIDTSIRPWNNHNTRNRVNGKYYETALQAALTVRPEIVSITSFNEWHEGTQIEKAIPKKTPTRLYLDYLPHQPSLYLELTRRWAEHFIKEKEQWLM
Sequence of UniProt O95251 (O95251 whole entry): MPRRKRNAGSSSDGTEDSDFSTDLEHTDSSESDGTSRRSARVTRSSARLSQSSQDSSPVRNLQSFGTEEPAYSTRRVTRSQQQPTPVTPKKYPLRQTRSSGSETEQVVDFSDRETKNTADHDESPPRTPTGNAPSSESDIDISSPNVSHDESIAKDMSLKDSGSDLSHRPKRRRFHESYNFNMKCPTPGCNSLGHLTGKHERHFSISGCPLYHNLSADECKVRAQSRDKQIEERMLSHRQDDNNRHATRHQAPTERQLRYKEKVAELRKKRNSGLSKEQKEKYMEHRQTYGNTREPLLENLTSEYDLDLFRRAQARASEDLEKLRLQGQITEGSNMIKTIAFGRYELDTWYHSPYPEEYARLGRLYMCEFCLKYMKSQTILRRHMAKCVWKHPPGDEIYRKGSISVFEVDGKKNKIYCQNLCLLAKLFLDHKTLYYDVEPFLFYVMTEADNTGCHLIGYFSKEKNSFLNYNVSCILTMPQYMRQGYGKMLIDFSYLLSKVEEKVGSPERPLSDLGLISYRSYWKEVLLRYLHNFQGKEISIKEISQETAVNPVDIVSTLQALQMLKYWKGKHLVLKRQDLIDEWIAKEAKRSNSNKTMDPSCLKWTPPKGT
Sequence of UniProt Q99986 (Q99986 whole entry): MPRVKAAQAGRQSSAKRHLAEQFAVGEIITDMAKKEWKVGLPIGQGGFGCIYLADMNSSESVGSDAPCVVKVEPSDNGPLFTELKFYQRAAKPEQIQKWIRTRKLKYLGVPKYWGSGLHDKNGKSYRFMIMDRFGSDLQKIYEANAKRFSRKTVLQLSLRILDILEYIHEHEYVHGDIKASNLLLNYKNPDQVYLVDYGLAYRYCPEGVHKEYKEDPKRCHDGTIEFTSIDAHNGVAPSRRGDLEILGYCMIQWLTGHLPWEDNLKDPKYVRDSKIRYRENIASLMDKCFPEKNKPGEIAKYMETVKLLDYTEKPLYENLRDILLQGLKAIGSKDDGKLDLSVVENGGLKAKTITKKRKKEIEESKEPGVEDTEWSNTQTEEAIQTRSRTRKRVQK
Sequence of UniProt Q02978 (Q02978 whole entry): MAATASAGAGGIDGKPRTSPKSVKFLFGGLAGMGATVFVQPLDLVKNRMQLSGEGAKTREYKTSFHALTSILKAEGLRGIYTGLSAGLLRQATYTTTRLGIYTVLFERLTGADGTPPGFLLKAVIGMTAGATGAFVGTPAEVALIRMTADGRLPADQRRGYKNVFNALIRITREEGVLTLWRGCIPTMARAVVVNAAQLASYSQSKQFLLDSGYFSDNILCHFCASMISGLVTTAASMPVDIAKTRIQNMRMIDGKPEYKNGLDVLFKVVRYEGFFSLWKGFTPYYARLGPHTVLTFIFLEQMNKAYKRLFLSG
Sequence of UniProt O60664 (O60664 whole entry): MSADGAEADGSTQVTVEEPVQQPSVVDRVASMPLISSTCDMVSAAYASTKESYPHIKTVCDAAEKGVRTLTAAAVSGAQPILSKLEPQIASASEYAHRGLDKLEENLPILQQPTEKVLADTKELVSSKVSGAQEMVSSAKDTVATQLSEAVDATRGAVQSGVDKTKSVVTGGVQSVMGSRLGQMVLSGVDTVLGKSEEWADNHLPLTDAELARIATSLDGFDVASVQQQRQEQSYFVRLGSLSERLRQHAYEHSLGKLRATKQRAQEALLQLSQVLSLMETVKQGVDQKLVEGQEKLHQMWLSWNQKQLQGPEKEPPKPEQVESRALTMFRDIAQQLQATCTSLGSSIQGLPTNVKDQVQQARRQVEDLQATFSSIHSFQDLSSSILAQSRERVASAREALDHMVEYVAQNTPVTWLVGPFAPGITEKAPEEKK
Sequence of UniProt Q9BZL6 (Q9BZL6 whole entry): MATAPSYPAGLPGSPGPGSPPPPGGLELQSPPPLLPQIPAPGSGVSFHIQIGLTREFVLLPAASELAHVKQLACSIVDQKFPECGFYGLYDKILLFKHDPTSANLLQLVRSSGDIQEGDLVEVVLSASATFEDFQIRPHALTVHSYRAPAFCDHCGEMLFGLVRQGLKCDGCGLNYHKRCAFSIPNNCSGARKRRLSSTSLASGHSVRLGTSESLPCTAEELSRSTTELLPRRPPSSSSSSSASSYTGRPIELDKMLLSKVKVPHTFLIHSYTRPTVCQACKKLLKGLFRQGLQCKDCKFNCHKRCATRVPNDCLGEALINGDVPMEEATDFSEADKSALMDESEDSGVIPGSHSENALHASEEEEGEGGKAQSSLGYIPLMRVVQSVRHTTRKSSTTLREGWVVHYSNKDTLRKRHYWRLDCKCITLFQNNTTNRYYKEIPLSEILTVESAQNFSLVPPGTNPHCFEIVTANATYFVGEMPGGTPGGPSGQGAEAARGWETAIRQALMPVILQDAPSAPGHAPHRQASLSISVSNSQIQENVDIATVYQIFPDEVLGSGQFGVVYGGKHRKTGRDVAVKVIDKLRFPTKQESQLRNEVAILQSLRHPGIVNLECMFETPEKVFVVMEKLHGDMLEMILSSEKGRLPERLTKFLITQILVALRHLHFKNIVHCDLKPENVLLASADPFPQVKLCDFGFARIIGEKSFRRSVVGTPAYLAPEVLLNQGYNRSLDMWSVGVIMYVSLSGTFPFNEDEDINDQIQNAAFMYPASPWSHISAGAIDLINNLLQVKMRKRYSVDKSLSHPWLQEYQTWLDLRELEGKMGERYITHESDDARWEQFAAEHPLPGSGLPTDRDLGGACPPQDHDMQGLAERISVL
Sequence of UniProt P15104 (P15104 whole entry): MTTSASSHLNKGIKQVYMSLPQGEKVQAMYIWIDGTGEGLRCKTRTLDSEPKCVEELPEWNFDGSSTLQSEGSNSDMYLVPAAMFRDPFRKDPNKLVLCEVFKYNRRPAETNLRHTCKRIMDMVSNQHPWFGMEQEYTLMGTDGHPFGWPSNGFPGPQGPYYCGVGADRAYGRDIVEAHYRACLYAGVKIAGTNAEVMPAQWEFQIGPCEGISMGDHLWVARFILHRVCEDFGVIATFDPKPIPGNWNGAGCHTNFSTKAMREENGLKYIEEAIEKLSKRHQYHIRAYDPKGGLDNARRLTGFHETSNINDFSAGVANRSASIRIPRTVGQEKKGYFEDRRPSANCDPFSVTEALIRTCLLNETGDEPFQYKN
Sequence of UniProt P55957 (P55957 whole entry): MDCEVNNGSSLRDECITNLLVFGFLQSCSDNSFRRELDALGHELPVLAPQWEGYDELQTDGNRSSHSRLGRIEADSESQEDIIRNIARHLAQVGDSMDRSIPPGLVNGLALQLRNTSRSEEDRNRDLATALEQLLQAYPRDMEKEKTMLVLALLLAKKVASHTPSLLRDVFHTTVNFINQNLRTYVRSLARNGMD
Sequence of UniProt Q96RR1 (Q96RR1 whole entry): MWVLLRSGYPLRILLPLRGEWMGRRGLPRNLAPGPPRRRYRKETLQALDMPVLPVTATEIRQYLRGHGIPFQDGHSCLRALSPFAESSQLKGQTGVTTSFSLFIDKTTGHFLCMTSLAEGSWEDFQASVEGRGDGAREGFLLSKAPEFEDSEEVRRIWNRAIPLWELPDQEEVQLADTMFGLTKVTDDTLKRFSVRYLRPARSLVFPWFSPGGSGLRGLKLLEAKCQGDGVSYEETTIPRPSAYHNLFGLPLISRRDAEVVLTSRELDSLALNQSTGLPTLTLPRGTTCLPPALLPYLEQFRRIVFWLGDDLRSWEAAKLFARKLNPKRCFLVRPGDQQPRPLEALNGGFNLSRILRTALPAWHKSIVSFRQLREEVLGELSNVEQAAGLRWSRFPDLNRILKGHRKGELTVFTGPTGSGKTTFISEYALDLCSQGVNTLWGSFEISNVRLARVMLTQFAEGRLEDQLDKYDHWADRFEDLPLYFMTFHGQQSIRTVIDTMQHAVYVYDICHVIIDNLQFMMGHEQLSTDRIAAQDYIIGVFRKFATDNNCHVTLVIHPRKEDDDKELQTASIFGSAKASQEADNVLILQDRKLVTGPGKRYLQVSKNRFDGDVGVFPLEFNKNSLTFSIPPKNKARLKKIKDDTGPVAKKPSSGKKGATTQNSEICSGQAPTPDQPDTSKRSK
Sequence of UniProt Q96IX5 (Q96IX5 whole entry): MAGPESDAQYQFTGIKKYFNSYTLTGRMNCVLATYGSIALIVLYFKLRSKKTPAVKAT

Work on KAT7 (UniProt O95251) yielded a thermal stability z-score [1] of -0.144, a thermal stability z-score [2, 3] of 0.116 and a thermal stability z-score ([2]; arsenate co-treatment: none) of -0.0536.

For GLUL (UniProt P15104), the thermal stability z-score [1] was -1.16, the thermal stability z-score [2, 3] was 0.732 and the thermal stability z-score ([2]; arsenate co-treatment: none) was 0.282.

Work on ARHGAP1 (UniProt Q07960) yielded a thermal stability z-score [1] of -0.115, a thermal stability z-score [2, 3] of -1.02 and a thermal stability z-score ([2]; arsenate co-treatment: none) of -0.692.

Work on MRPL46 (UniProt Q9H2W6) yielded a thermal stability z-score [1] of -0.0514, a thermal stability z-score [2, 3] of -0.218 and a thermal stability z-score ([2]; arsenate co-treatment: none) of 0.1.

PLIN3 (UniProt O60664) gave a thermal stability z-score [1] of 0.704, a thermal stability z-score [2, 3] of 0.559 and a thermal stability z-score ([2]; arsenate co-treatment: none) of 0.461.

For CD276 (UniProt Q5ZPR3), the thermal stability z-score [1] was 0.000316, the thermal stability z-score [2, 3] was 0.196 and the thermal stability z-score ([2]; arsenate co-treatment: none) was -0.174.

Work on SNX15 (UniProt Q9NRS6) yielded a thermal stability z-score [1] of 0.121, a thermal stability z-score [2, 3] of -0.412 and a thermal stability z-score ([2]; arsenate co-treatment: none) of 0.114.

With UniProt F8W031 the thermal stability z-score [1] was 0.325, the thermal stability z-score [2, 3] was -3.73 and the thermal stability z-score ([2]; arsenate co-treatment: none) was -2.58.

TIMP1 (UniProt P01033) was tested, and the thermal stability z-score [1] was -0.272, the thermal stability z-score [2, 3] was -0.407 and the thermal stability z-score ([2]; arsenate co-treatment: none) was -1.02.

In the case of PDE4D (UniProt Q08499), the thermal stability z-score [1] was 0.101, the thermal stability z-score [2, 3] was 0.651 and the thermal stability z-score ([2]; arsenate co-treatment: none) was 0.623.

With CD109 (UniProt Q6YHK3) the thermal stability z-score [1] was 1.06, the thermal stability z-score [2, 3] was -0.877 and the thermal stability z-score ([2]; arsenate co-treatment: none) was -1.01.

Work on NCBP2 (UniProt P52298) yielded a thermal stability z-score [1] of -0.0118, a thermal stability z-score [2, 3] of 0.782 and a thermal stability z-score ([2]; arsenate co-treatment: none) of 0.577.

DXO (UniProt O77932) gave a thermal stability z-score [1] of 0.0286, a thermal stability z-score [2, 3] of 0.186 and a thermal stability z-score ([2]; arsenate co-treatment: none) of 0.216.

Work on CD2BP2 (UniProt O95400) yielded a thermal stability z-score [1] of 0.94, a thermal stability z-score [2, 3] of 0.994 and a thermal stability z-score ([2]; arsenate co-treatment: none) of 0.894.

With RPL3 (UniProt P39023) the thermal stability z-score [1] was -0.75, the thermal stability z-score [2, 3] was 0.408 and the thermal stability z-score ([2]; arsenate co-treatment: none) was -0.0552.

MANEAL (UniProt Q5VSG8) was tested, and the thermal stability z-score [1] was 0.736, the thermal stability z-score [2, 3] was -0.276 and the thermal stability z-score ([2]; arsenate co-treatment: none) was 0.109.

SLC2A1 (UniProt P11166) gave a thermal stability z-score [1] of 0.124, a thermal stability z-score [2, 3] of 0.651 and a thermal stability z-score ([2]; arsenate co-treatment: none) of 0.659.

Work on C21ORF59 (UniProt P57076) yielded a thermal stability z-score [1] of 0.112, a thermal stability z-score [2, 3] of 0.103 and a thermal stability z-score ([2]; arsenate co-treatment: none) of 0.1.

ANAPC7 (UniProt Q9UJX3) gave a thermal stability z-score [1] of 0.251, a thermal stability z-score [2, 3] of 0.306 and a thermal stability z-score ([2]; arsenate co-treatment: none) of 0.186.

Work on MFF (UniProt Q9GZY8) yielded a thermal stability z-score [1] of 0.0903, a thermal stability z-score [2, 3] of -0.338 and a thermal stability z-score ([2]; arsenate co-treatment: none) of -0.0711.

In the case of PHACTR2 (UniProt O75167), the thermal stability z-score [1] was -0.387, the thermal stability z-score [2, 3] was 0.56 and the thermal stability z-score ([2]; arsenate co-treatment: none) was -0.408.

GPKOW (UniProt Q92917) gave a thermal stability z-score [1] of -1.58, a thermal stability z-score [2, 3] of 0.182 and a thermal stability z-score ([2]; arsenate co-treatment: none) of 0.0635.

In the case of USMG5 (UniProt Q96IX5), the thermal stability z-score [1] was 0.215, the thermal stability z-score [2, 3] was 1.21 and the thermal stability z-score ([2]; arsenate co-treatment: none) was 0.486.

STAU2 (UniProt Q9NUL3) showed a thermal stability z-score [1] of -0.323, a thermal stability z-score [2, 3] of -0.183 and a thermal stability z-score ([2]; arsenate co-treatment: none) of -0.124.

For RSL24D1 (UniProt Q9UHA3), the thermal stability z-score [1] was -3.91, the thermal stability z-score [2, 3] was 1.21 and the thermal stability z-score ([2]; arsenate co-treatment: none) was 0.133.

Work on SCML2 (UniProt Q9UQR0) yielded a thermal stability z-score [1] of -0.22, a thermal stability z-score [2, 3] of -0.0267 and a thermal stability z-score ([2]; arsenate co-treatment: none) of -0.0968.

In the case of MPHOSPH6 (UniProt Q99547), the thermal stability z-score [1] was -2.13, the thermal stability z-score [2, 3] was 0.29 and the thermal stability z-score ([2]; arsenate co-treatment: none) was -0.917.

In the case of KDELC1 (UniProt Q6UW63), the thermal stability z-score [1] was 0.422, the thermal stability z-score [2, 3] was -2.9 and the thermal stability z-score ([2]; arsenate co-treatment: none) was -2.19.

Work on SORT1 (UniProt Q99523) yielded a thermal stability z-score [1] of 1.41, a thermal stability z-score [2, 3] of -0.0906 and a thermal stability z-score ([2]; arsenate co-treatment: none) of 0.945.

BID (UniProt P55957) showed a thermal stability z-score [1] of 0.587, a thermal stability z-score [2, 3] of 0.895 and a thermal stability z-score ([2]; arsenate co-treatment: none) of 1.36.

STT3A (UniProt P46977) showed a thermal stability z-score [1] of -0.218, a thermal stability z-score [2, 3] of -2.6 and a thermal stability z-score ([2]; arsenate co-treatment: none) of -1.98.

With FANCD2 (UniProt Q9BXW9) the thermal stability z-score [1] was -0.953, the thermal stability z-score [2, 3] was -0.812 and the thermal stability z-score ([2]; arsenate co-treatment: none) was -0.0726.

MAPKAP1 (UniProt Q9BPZ7) showed a thermal stability z-score [1] of 0.0626, a thermal stability z-score [2, 3] of 0.13 and a thermal stability z-score ([2]; arsenate co-treatment: none) of -0.0501.

With STX7 (UniProt O15400) the thermal stability z-score [1] was 0.507, the thermal stability z-score [2, 3] was -0.0553 and the thermal stability z-score ([2]; arsenate co-treatment: none) was 0.417.

For UBASH3B (UniProt Q8TF42), the thermal stability z-score [1] was -0.165, the thermal stability z-score [2, 3] was -0.0394 and the thermal stability z-score ([2]; arsenate co-treatment: none) was -0.103.

Work on VAMP7 (UniProt P51809) yielded a thermal stability z-score [1] of -0.234, a thermal stability z-score [2, 3] of -0.512 and a thermal stability z-score ([2]; arsenate co-treatment: none) of -0.444.

SCAF11 (UniProt Q99590) showed a thermal stability z-score [1] of -1.02, a thermal stability z-score [2, 3] of 1.24 and a thermal stability z-score ([2]; arsenate co-treatment: none) of 0.982.

SLC25A11 (UniProt Q02978) showed a thermal stability z-score [1] of 0.593, a thermal stability z-score [2, 3] of 0.183 and a thermal stability z-score ([2]; arsenate co-treatment: none) of 0.431.

With TALDO1 (UniProt P37837) the thermal stability z-score [1] was 0.839, the thermal stability z-score [2, 3] was 0.471 and the thermal stability z-score ([2]; arsenate co-treatment: none) was 0.557.

With PTPMT1 (UniProt Q8WUK0) the thermal stability z-score [1] was 0.767, the thermal stability z-score [2, 3] was 0.619 and the thermal stability z-score ([2]; arsenate co-treatment: none) was 0.326.

VRK1 (UniProt Q99986) gave a thermal stability z-score [1] of -0.267, a thermal stability z-score [2, 3] of 0.263 and a thermal stability z-score ([2]; arsenate co-treatment: none) of 0.423.

Target LIG1 (UniProt P18858) has a thermal stability z-score [1] of 0.24, a thermal stability z-score [2, 3] of -0.166 and a thermal stability z-score ([2]; arsenate co-treatment: none) of 0.00122.

CDA (UniProt P32320) was tested, and the thermal stability z-score [1] was 1.03, the thermal stability z-score [2, 3] was 0.868 and the thermal stability z-score ([2]; arsenate co-treatment: none) was 1.

Target H2AFZ|H2AFV has a thermal stability z-score [1] of -1.63, a thermal stability z-score [2, 3] of 1.28 and a thermal stability z-score ([2]; arsenate co-treatment: none) of 1.33.

Target NEMF (UniProt O60524) has a thermal stability z-score [1] of 0.135, a thermal stability z-score [2, 3] of -0.153 and a thermal stability z-score ([2]; arsenate co-treatment: none) of -0.18.

In the case of MYBBP1A (UniProt Q9BQG0), the thermal stability z-score [1] was -1.35, the thermal stability z-score [2, 3] was 1.21 and the thermal stability z-score ([2]; arsenate co-treatment: none) was 0.675.

TRMT2A (UniProt Q8IZ69) showed a thermal stability z-score [1] of -0.216, a thermal stability z-score [2, 3] of -0.235 and a thermal stability z-score ([2]; arsenate co-treatment: none) of -0.172.

PEO1 (UniProt Q96RR1) showed a thermal stability z-score [1] of 0.122, a thermal stability z-score [2, 3] of -0.0405 and a thermal stability z-score ([2]; arsenate co-treatment: none) of 0.0511.

PPP2R1A (UniProt P30153) gave a thermal stability z-score [1] of -1.48, a thermal stability z-score [2, 3] of 0.108 and a thermal stability z-score ([2]; arsenate co-treatment: none) of 0.121.

Work on GTPBP4 (UniProt Q9BZE4) yielded a thermal stability z-score [1] of -1, a thermal stability z-score [2, 3] of -0.6 and a thermal stability z-score ([2]; arsenate co-treatment: none) of 0.00531.

Target ITPA (UniProt Q9BY32) has a thermal stability z-score [1] of 0.199, a thermal stability z-score [2, 3] of 0.939 and a thermal stability z-score ([2]; arsenate co-treatment: none) of 0.734.

APPL1 (UniProt Q9UKG1) showed a thermal stability z-score [1] of 1.2, a thermal stability z-score [2, 3] of -0.333 and a thermal stability z-score ([2]; arsenate co-treatment: none) of 0.107.

PRKD2 (UniProt Q9BZL6) showed a thermal stability z-score [1] of -0.232, a thermal stability z-score [2, 3] of -0.0965 and a thermal stability z-score ([2]; arsenate co-treatment: none) of -0.0785.

Target CHCHD1 (UniProt Q96BP2) has a thermal stability z-score [1] of -0.0935, a thermal stability z-score [2, 3] of 0.43 and a thermal stability z-score ([2]; arsenate co-treatment: none) of 0.138.

Target C12ORF10 (UniProt Q9HB07) has a thermal stability z-score [1] of 0.0961, a thermal stability z-score [2, 3] of -0.0259 and a thermal stability z-score ([2]; arsenate co-treatment: none) of -1.16.
